Experimental data from PubChem BioAssay AID1159559 (GlaxoSmithKline (GSK), 2015).
Activity calls are given as the source filed them.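 How the source made its calls: active means compounds whose IC50 against parasite growth in infected mouse cells is below 50000 nM; inactive means the rest.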

Tested on: T. cruzi Tulahuen in NIH-3T3, beta-gal fluorescence, 4 d
Assay: anti-Chagas amastigote proliferation inhibitors – cell-based (AID 1159559)

In order of falling IC50:
1. Cc1nc2c(-c3cccs3)c(C)nn2c(NCCO)c1C  40000 nM
2. COc1ccccc1-n1c(SCC(=O)Nc2ccc3c(c2)OCO3)nc2c(c1=O)SCC2  40000 nM
3. Cn1ccnc1CN1CCc2[nH]cnc2C1c1ccccc1OCc1ccccc1 (stereo not given)  40000 nM
4. COc1ccc([N+](=O)[O-])cc1NC(=O)c1cc(Cl)ccc1O  32000 nM
5. COc1ccc(C2CC(c3ccc(NS(C)(=O)=O)cc3)=NN2C(=O)c2cccs2)cc1OC (stereo not given)  25000 nM
6. CCc1ccccc1[C@@H](C)NC(=O)c1cnc2c(cnn2CC)c1NC1CCN(C(N)=O)CC1  25000 nM
7. O=C(NCc1ccc(Cl)cc1)C1CN(C(=O)c2ccc(F)cc2)CCS1 (stereo not given)  25000 nM
8. O=C(Nc1nc2ccccc2[nH]1)c1ccc2nc[nH]c2c1  25000 nM
9. CC(=O)Nc1ccc(CN2CCC(N3CC(c4ccccc4)(c4ccccc4)OCC3=O)CC2)cc1  13000 nM
10. CCc1cccc(CC)c1-n1c(SCC(=O)NC(=O)NCc2ccco2)nnc1-c1cccnc1  13000 nM
11. O=C(NC(CO)c1ccc(F)cc1)c1ccc(-c2c[nH]c3ncccc23)s1 (stereo not given)  10000 nM
12. CCN(CC)S(=O)(=O)c1ccc(C)c(NC(=O)c2cc(Cl)c3c(c2)OCO3)c1  6300 nM
13. CC(=O)Nc1ccc(-c2ccnc(Nc3cccc(C#N)c3)n2)cc1  6300 nM
14. COc1ccc(OC)c(S(=O)(=O)N(Cc2c(F)cccc2F)[C@@H]2CCN(C#N)C2)c1  6300 nM
15. COc1ccc(CNc2nsc3ccccc23)cc1OC  6300 nM
16. O=C(c1cccc(Nc2ncc(-c3ccc4c(c3)OCO4)cn2)c1)N1CCOCC1  6300 nM
17. Cc1nc2c(-c3nc(-c4ccc(N)cc4)n[nH]3)cccn2c1C  6300 nM
18. O=C(CN(Cc1ccccn1)Cc1ccccn1)NC1Cc2ccccc2C1  5000 nM
19. Cc1ccccc1NS(=O)(=O)c1ccc2[nH]cc(C(=O)NC3CCCC(C)C3C)c(=O)c2c1 (stereo not given)  5000 nM
20. CCC(CC)C(=O)Nc1ccc(-c2nnc(-c3ccc(OC)cc3)o2)cc1  5000 nM
21. CN(CCOc1ccc(Cl)cc1)Cc1nc(N)nc(N(C)C)n1  5000 nM
22. CCCn1c(NC(=O)CCn2cc(Br)cn2)nc2ccccc21  5000 nM
23. O=C(CN(Cc1ccccn1)Cc1ccccn1)NCc1csc(-c2cccs2)n1  4000 nM
24. COc1ccc(Nc2nc(NC3CCC(O)CC3)ncc2Br)c(C(N)=O)c1 (stereo not given)  4000 nM
25. CCN(Cc1cccs1)C(=O)CSc1nnc(-c2ccc3c(c2)OCO3)o1  4000 nM
26. CCc1cc(C(=O)Nc2nccn2-c2ccccc2)cs1  3200 nM
27. CC(C)(C)C(=O)NCCc1csc(-c2ccc(F)cc2)n1  3200 nM
28. COc1ccc(OC)c(NC(=O)c2ccc([N+](=O)[O-])o2)c1  3200 nM
29. O=C(CN1CCN(S(=O)(=O)c2cccc([N+](=O)[O-])c2)CC1)Nc1ccc(Oc2ccccc2)cc1  2500 nM
30. COc1cccc(-c2c(C)nn(-c3nc(N)nc(-c4ccccn4)n3)c2N)c1  2500 nM
31. NCc1ccc2c(Cl)cc(Cl)c(O)c2n1  2500 nM
32. Cc1ccc(NC(=O)C(C)n2nc([N+](=O)[O-])c(Br)c2C)cc1Cl (stereo not given)  2500 nM
33. O=C(NCc1ccc(-n2cccc2)cc1)c1nc(Cn2ccc([N+](=O)[O-])n2)no1  2500 nM
34. NC(=O)c1cc(F)ccc1Nc1nc(NC2CCC(O)CC2)ncc1Br (stereo not given)  2500 nM
35. COc1ccc(Nc2nccc(N(C)c3n[nH]c4c(F)cccc34)n2)cc1S(C)(=O)=O  2000 nM
36. CC(C)c1nn(-c2nc(N)nc(-c3ccccn3)n2)c(N)c1C1CCCCC1  2000 nM
37. CCCc1cc(N)nc(-c2cc(CCC)cc(N)n2)c1  2000 nM
38. CN(Cc1cc2ccccc2s1)c1ncc2c(N)nc(N)nc2n1  2000 nM
39. CS(=O)(=O)c1ccc(Nc2nccc(-c3cnn4ncccc34)n2)cc1  2000 nM
40. Cc1nc(N2CC(C)OC(C)C2)sc1C(=O)Nc1ccc2c(c1)OCO2 (stereo not given)  2000 nM
41. CC(C)c1cc(C(=O)N2CCCC(c3cc4ncccc4[nH]3)C2)on1 (stereo not given)  2000 nM
42. COc1ccc2ncc(=O)n(CCN3CCC(NCc4ccc(-c5cccs5)cc4)CC3)c2n1  2000 nM
43. CN(C)CCN(C)Cc1ccc(F)cc1NS(=O)(=O)c1ccc(Cl)c(Cl)c1  1600 nM
44. NC(=O)c1ccc(-c2cccc(OCCN3CCN(C4CCCCC4)CC3)c2)cc1  1600 nM
45. NS(=O)(=O)c1ccc(Nc2ncc3cccc(OC4CCNCC4)c3n2)cc1  1600 nM
46. COc1cc(C(C)C)c(S(C)(=O)=O)cc1C(=O)N1CCN(c2ccccc2Cl)CC1  1600 nM
47. CN(CC1CCCO1)S(=O)(=O)c1ccc(C(=O)Nc2nc(-c3ccccn3)cs2)cc1 (stereo not given)  1600 nM
48. CCS(=O)(=O)c1cccc(C(=O)Nc2nc(-c3ccccn3)cs2)c1  1600 nM
49. N#Cc1cccc(Nc2nccc(N3CCC(NS(=O)(=O)c4cccc(C#N)c4)CC3)n2)c1  1600 nM
50. NC(=O)c1ncccc1Nc1nc(NC2CCC(O)CC2)ncc1Br (stereo not given)  1600 nM
51. CN(C)S(=O)(=O)c1cccc(C(=O)Nc2nc(-c3ccccn3)cs2)c1  1300 nM
52. COc1cccc(C(=O)[C@H]2C[C@@H]2CN(Cc2ccccn2)Cc2ccccn2)c1  1300 nM
53. O=C(NCc1nnc2n1CCCCC2)c1ccc(-c2ccc(F)cc2)o1  1300 nM
54. CN(C)S(=O)(=O)c1ccc(-c2cnc(N)c(-c3nc4ccc(F)cc4[nH]3)c2)cc1  1300 nM
55. CNc1cc(C)nc(C2CN(C(=O)c3n[nH]c4ccccc34)CCO2)c1 (stereo not given)  1300 nM
56. Cc1ccc2sc(NC(=O)Cn3cnc([N+](=O)[O-])n3)nc2c1  1300 nM
57. CC(C)(C)Nc1nc(-c2ccccn2)nc2ccccc12  1300 nM
58. O=C(Nc1cccc(Cl)c1)Nc1ccc([N+](=O)[O-])cc1Cl  1300 nM
59. CN(C)Cc1ccc(-c2ccc(S(=O)(=O)NCC3CCCO3)c(F)c2)cc1 (stereo not given)  1300 nM
60. COc1ccc(CNc2cc(C3CC3)nc(-c3nccn3C)n2)cc1  1000 nM
61. COc1cc(NC(=O)Nc2cccc(CNC(=O)OC3CCCCC3)c2)ccc1-c1cnco1  1000 nM
62. NS(=O)(=O)c1ccc(CNC(=O)c2ccc([N+](=O)[O-])s2)cc1  1000 nM
63. Fc1ccc(OC2CC(NCc3cccc4cn[nH]c34)C2)cc1C(F)(F)F (stereo not given)  790 nM
64. Cc1[nH]nc(-c2nc3ccccc3[nH]2)c1C(=O)NC1CCCNC1 (stereo not given)  790 nM
65. CN(C)Cc1ccc(N2CCC(NS(=O)(=O)c3ccc(Cl)cc3)CC2)cc1  790 nM
66. O=C1NCc2cccc(Nc3nc(NC4CCC(O)CC4)ncc3Br)c21 (stereo not given)  630 nM
67. O=C(Nc1cccc(F)c1)N1CCC(Oc2cccc(-c3cccnc3)c2)CC1  630 nM
68. COc1ccc(-c2nc3ccncc3c(=O)n2CCOc2ccccc2)cc1  630 nM
69. Clc1cc(Br)ccc1OCCCCn1ccnc1  630 nM
70. O=c1ccc2ccc(F)c3c2n1C[C@H]3CN1CCN(CC(O)c2cc3c(cn2)OCS3)CC1 (stereo not given in full)  630 nM
71. CC(=O)Nc1ccc(-c2cnc(N)c(-c3nc4ccc(F)cc4[nH]3)c2)cc1  630 nM
72. O=S(=O)(NCC(c1cccnc1)N1CCN(c2ccccc2F)CC1)c1ccc(F)cc1 (stereo not given)  500 nM
73. O=C(Nc1nc(-c2ccccn2)cs1)N1C[C@H]2C[C@@]2(c2ccccc2)C1  500 nM
74. COc1ccc(CN(C)Cc2ccncc2)cc1-c1ccc(S(=O)(=O)NC2CCC2)s1  500 nM
75. CN(C)S(=O)(=O)c1cccc(CSc2nnc(-c3ccc4c(c3)OCO4)o2)c1  500 nM
76. COc1cccc2sc(CN(C)C(=O)C3CNCCN3c3ccc(F)cc3)c(C)c12 (stereo not given)  400 nM
77. O=C(NCCc1ccccc1Cl)c1cccn1-c1cccnc1  400 nM
78. CCN(Cc1ccncc1)Cc1ccc(NC(=O)c2cc(-c3ccc(F)cc3)n[nH]2)cc1  400 nM
79. COc1cccc(-c2cc(C(F)(F)F)nc(-n3ccc([N+](=O)[O-])n3)n2)c1  400 nM
80. Cc1cc(Br)cc(C(=O)c2c(C(C)C)c(=O)[nH]c(=O)n2Cc2ccnc(N)c2)c1  400 nM
81. CNS(=O)(=O)c1ccccc1Nc1nc(Nc2ccnn2C)ncc1Cl  400 nM
82. COc1ccc2ncc(=O)n(CCN3CCOC(CNCc4ccc(C(F)(F)F)cc4F)C3)c2n1 (stereo not given)  400 nM
83. CC1CCCN(S(=O)(=O)c2ccc(C(=O)Nc3nc(-c4ccccn4)cs3)cc2)C1 (stereo not given)  400 nM
84. O=C(Nc1ncc([N+](=O)[O-])s1)C1CC1  400 nM
85. COc1ccc2c(Cl)c(C(=O)N3CCC3)sc2c1Cl  400 nM
86. Cc1cccc(N2CCCN(Cc3c[nH]c4ccccc34)CC2)n1  320 nM
87. c1ccc(CCNCc2cncc3nc(-c4cnccn4)n(C4CCCCC4)c23)cc1  320 nM
88. COc1ccc(C(=O)N2CCC(Nc3cccnc3)C2)c(OC)n1 (stereo not given)  320 nM
89. CC(C)N(C(=O)CN1C(=O)C(N)C(=O)N(c2ccccc2)c2ccccc21)c1ccccc1 (stereo not given)  320 nM
90. CC(=Cc1ccccc1)CN1CCC(=O)N(Cc2cccnc2)CC1  250 nM
91. COc1ccc2nccc(NC(=O)C3(OC)CCN(CC(O)c4ccc5c(c4)OCCO5)CC3)c2n1 (stereo not given)  250 nM
92. COc1cc(-c2nc(N3CCOCC3)sc2-c2ccnc(NC3CCOCC3)n2)ccc1Cl  250 nM
93. COc1ccc(OC)c2c(=O)c(Cc3ccccc3)c(C)[nH]c12  200 nM
94. Oc1c(-c2n[nH]c(CCc3ccccc3)n2)ncc2cccnc12  200 nM
95. Cc1c(C#N)c([N+](=O)[O-])nn1Cc1cccc(Cl)c1Cl  200 nM
96. CC(Cn1ccnc1)NC(=O)COc1ccc(Cl)c(Cl)c1 (stereo not given)  200 nM
97. Cc1nn(C)c(Cl)c1CN(Cc1cccnc1)Cc1ccsc1  160 nM
98. Cc1ccc(C)c(OC2CCN(C(=O)C(C)n3ccnc3)CC2)c1 (stereo not given)  160 nM
99. CC(C)(C)c1csc(NC(=O)c2ccc([N+](=O)[O-])s2)n1  160 nM
100. Cc1cnc(Nc2cc(Cc3ccccc3)nc(NC3CCC(O)CC3)n2)s1 (stereo not given)  130 nM
101. CCN(CC)c1nc(Nc2ccncc2)nc2ccccc12  130 nM
102. CCCC(=O)N(Cc1ccccn1)c1nc2ccccc2s1  130 nM
103. CC(=O)Nc1ccc(Nc2nccc(-c3cnn4ncccc34)n2)cc1C(F)(F)F  50 nM

In the case of CCOc1ccc(CC(=O)N2c3ccccc3CC2C(=O)NC)cc1 (stereo not given), the IC50 is reported as > 50000 nM (inactive).
In the case of CCOc1ccc(OCC(=O)N2c3ccccc3CC2C(=O)NC)cc1 (stereo not given), the IC50 is reported as > 50000 nM (inactive).
In the case of COc1cc(OC)cc(C(=O)N[C@@H](CC(C)C)C(=O)NC2(C#N)CC2)c1, the IC50 is reported as > 50000 nM (inactive).
In the case of COc1ccc(C(=O)Nc2ccc(NC(=O)CO)cc2)cc1, the IC50 is reported as > 50000 nM (inactive).
CC(=O)Nc1cccc(Nc2ncnc3nc[nH]c23)c1 was tested, and the IC50 was > 50000 nM (inactive).
With CCOC(=O)c1noc(N)c1-c1ccccc1 the IC50 was > 50000 nM (inactive).
Cn1nccc1NC(=O)Cn1ccc(-c2ccncc2)n1 was tested, and the IC50 was > 50000 nM (inactive).
